Measured values published in patent publication US20140248212A1, “NON-IMMUNOGENIC POSITRON EMISSION TOMOGRAPHY REPORTER GENE SYSTEMS” (THE REGENTS OF THE UNIVERSITY OF CALIFORNIA, priority 2011, published 2014).
Entries after “also recorded” stand apart in the source; their conditions may differ.

Tests used:
[1] = test system: L1210 tumors expressing TK2-N93D/L109F; assay: microPET/CT of SCID mice bearing L1210-PRG tumors (TK2-N93D/L109F); assay type: in vivo
Protocol: Animal studies were approved and carried out according to specific guidelines. C57/BL6 mice were injected with the indicated probe and underwent micro-PET/CT analyses at 1- and 3-h post probe injection (Inveon, Siemens Medical Solutions USA Inc.; microCAT; Imtek Inc.). For tumor imaging studies, SCID mice were injected subcutaneously on day −7 in the right and left flanks with 1×10^6 L1210-PRG-expressing cells in 50% v/v phosphate-buffered saline and 50% v/v Matrigel™ (BD Biosciences). For imaging experiments, mice were kept warm and under gas anesthesia (2% v/v isoflurane) and were injected intravenously with 200 μCi of ^18F-labeled probes. A 3-h interval was allowed between probe administration and microPET/CT scanning Static microPET images were acquired for 600 s. Image data were evaluated in three-dimensional histograms and reconstructed with a zoom factor of 2.1 using three-dimensional ordered set expectation maximization (OSEM) with 2 iterations followed by MAP (maximum a posteriori) reconstruction with 18 iterations (beta=0.1). Images were analyzed using OsiriX Imaging Software Version 3.8.
Mice implanted with L1210 cells expressing TK2-based PRGs were scanned by microPET/CT using L-^18F-FMAU (FIG. 30A). For comparison, mice implanted with L1210 cells expressing HSV1-sr39tk were scanned by microPET/CT using ^18F-FHBG (FIG. 30B).

[2] = test system: TK2-N93D-expressing L1210 cells; assay: L-18F-FMAU uptake assay, transduced L1210 cells (TK2-N93D); assay type: cell-based, murine
Description: To overcome the negative feedback limitation of TK2, a point mutation-N93D, was engineered. The work done by Piskur and colleagues on the structurally related Drosophila melanogaster deoxyribonucleoside kinase (see, e.g. Welin, M., et al. FEBS J 272:3733-3742, 2005) led one to predict that the N93D mutation would reduce the feedback inhibition of TK2 by dTTP. This prediction was confirmed by a comparison between the wild type (WT) and the TK2-N93D mutant in a kinase assay in which increasing concentrations of dTTP were added to inhibit TK2 enzymatic activity (FIG. 8B). We then determined whether the enhanced resistance to feedback inhibition translates into improved TK2-N93D catalytic activity towards the L-[^18F]FMAU substrate. The murine leukemic cell line L1210 was engineered to express the WT and mutated PRG. PRG-expressing L1210 cell lines were sorted to similar levels of gene expression, using enhanced yellow fluorescent protein (eYFP) as a co-linked fluorescent marker. […] It was also examined whether the expression of TK2-N93D had detrimental effects on cellular physiology (criterion 4 for PRGs). […] In contrast, sr39tk overexpression induced a 4-fold increase in dTTP pools (FIG. 9C). […] These findings provide evidence that the utility of sr39tk is limited not only by its immunogenicity but also by its effects on normal cellular physiology.
The L1210 cell line (see, e.g. Jordheim, L. P., et al. (2004) Clin. Cancer Res. 10, 5614-5621) was a gift. Cells were cultured at 5% v/v CO2 and 37° C. in RPMI supplemented with 5% v/v FCS. […]
L1210 cells transduced with the indicated PET reporter genes (L1210-PRG) were seeded at a density of 500,000 cells/well in 24-well plates. […] Radioactivity was measured using a gamma counter.

[3] = Human whole-body PET/CT biodistribution of PET reporter probes; assay type: in vivo; settings: for accumulation in myocardium / heart and liver: healthy volunteers; for intestinal / GI tract activity compared with 18F-FHBG / tracer background within abdomen and pelvis: human; for tracer background within abdomen and pelvis: whole-body PET/CT
Description: All studies involving human volunteers were approved. A healthy person and a healthy volunteer were recruited for the L-^18F-FMAU biodistribution study. Each volunteer received a bolus intravenous injection of ˜56 MBq (1.5 mCi) sterile L-^18F-FMAU and had four consecutive whole-body (starting from just above the head to above the knees, 6 bed positions, 5-min scan at each bed position) PET scans (Biograph 64, Siemens), with the first scan starting shortly after intravenous injection of L-^18F-FMAU. A low dose CT scan was also obtained for attenuation correction. Volunteers urinated after all scans had been performed. The region of interest analysis was performed to measure mean standard uptake values of L-^18F-FMAU in major organs/tissues. To illustrate the biodistribution of ^18F-FHBG, unpublished scan from a previous study (see, e.g. Yaghoubi, S. S., et al. (2009) Nat. Clin. Pract. Oncol. 6, 53-58) was used.

SMILES: Cc1cn([C@H]2O[C@@H](CO)[C@H](O)[C@H]2[18F])c(=O)[nH]c1=O [L-^18F-FMAU, 2′-deoxy-2′-^18F-5-methyl-1-β-L-arabinofuranosyluracil]
- probe uptake in L1210 tumors ([1]; L-18F-FMAU, 3 h post-injection): 19.9±1.5 % injected dose/g
- L-18F-FMAU uptake, higher than that of TK2-N93D-expressing cells ([1]; in vivo, FIG. 30C): 2.6 fold
- increase in L-18F-FMAU uptake relative to cells expressing WT TK2 ([2]; 1 h uptake, FIG. 27C): 1.5 fold
- L-[18F]FMAU accumulation compared to WT TK2 transduced cells ([2]; FIG. 8C): increased accumulation; also recorded: increased uptake
- decrease of L-18F-FMAU uptake ([2]; in the presence of 5 μM D-dT): 75%
- tissues with relatively high signals ([3]; 2 h post-administration): relatively high signals were observed in liver, kidneys, gall bladder, bladder, and the GI tract
- liver activity compared with 18F-FHBG ([3]; at 2 h): more intense activity
- uptake pattern in healthy volunteer ([3]; first in human study, FIG. 20): mainly in its clearance routes, liver and bladder, with relatively low accumulation in intestines and some accumulation in the heart
- accumulation in myocardium / heart and liver [3]: accumulation was also observed in the myocardium; also recorded: accumulates in the myocardium and liver
- accumulation in myocardium / heart and liver ([3]; listed as L-[^18F]FMAU): accumulates in these tissues
- intestinal / GI tract activity compared with 18F-FHBG [3]: lower than that of ^18F-FHBG
- intestinal / GI tract activity compared with 18F-FHBG ([3]; listed as 18F-L-FMAU): lower intestinal background
- tracer background within abdomen and pelvis ([3]; listed as L-[^18F]-FMAU): very low background in abdominal cavity
- tracer background within abdomen and pelvis ([3]; listed as L-[^18F]FMAU): very low tracer background
